The text below walks through data of ChEMBL document CHEMBL1138893, “Modulators of the human CCR5 receptor. Part 3: SAR of substituted 1-[3-(4-methanesulfonylphenyl)-3-phenylpropyl]-piperidinyl phenylacetamides” (Bioorg Med Chem Lett, 2006).

Data set [1] can be described thus: in vivo. As to conditions: rat, iv.
Description: Half life in rat at 1-2 mg/kg, iv
Data set [2] is described as follows: in vivo. As to conditions: rat, iv. The source holds these as a separate data set.
Description: Clearance in rat at 1-2 mg/kg, iv
The nature of data set [3]: in vivo. The following applies: rat, iv. The source holds these as a separate data set.
Data set [4] addresses C-C chemokine receptor type 5 (Homo sapiens, UniProt P51681). In words: biochemical.
Description: Displacement of [125I]MIP-1-alpha to human recombinant CCR5 expressed in CHO cells

SMILES strings stand for the structures.

Sequence of C-C chemokine receptor type 5 (P51681 whole entry): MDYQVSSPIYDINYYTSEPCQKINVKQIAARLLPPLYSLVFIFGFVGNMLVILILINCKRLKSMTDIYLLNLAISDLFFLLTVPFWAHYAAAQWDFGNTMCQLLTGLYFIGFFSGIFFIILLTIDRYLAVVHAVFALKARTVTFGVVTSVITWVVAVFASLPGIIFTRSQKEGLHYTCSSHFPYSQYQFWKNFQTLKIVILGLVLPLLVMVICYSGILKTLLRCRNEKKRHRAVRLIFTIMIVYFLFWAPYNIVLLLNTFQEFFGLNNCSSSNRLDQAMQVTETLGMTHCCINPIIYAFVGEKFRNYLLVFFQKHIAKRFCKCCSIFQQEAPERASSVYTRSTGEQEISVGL

In data set [1], `CCN(C(=O)Cc1ccc(S(C)(=O)=O)cc1)C1CCN(CCC(c2ccc(F)cc2)c2ccc(F)cc2)CC1` showed a half-life of 2.4 h. In data set [2], this compound showed a clearance of 10 mL/min/kg. The compound further came in with a Vd in data set [3] of 1.7 L/kg.

Compound `C=CCN(C(=O)Cc1ccc(S(C)(=O)=O)cc1)C1CCN(CCC(c2ccccc2)c2ccccc2)CC1` showed a half-life in data set [1] of 0.9 h. For the same compound, the clearance in data set [2] came out at 54 mL/min/kg. Also, the distribution volume (Vd) in data set [3] came out at 2.7 L/kg.

Turning to `CCN(C(=O)Cc1ccc(S(C)(=O)=O)cc1)C1CCN(CC[C@H](c2ccc(S(C)(=O)=O)cc2)c2cccc(C(C)(C)C)c2)CC1`, in data set [4], the IC50 is 500 nM.

`CCN(C(=O)Cc1ccc(S(C)(=O)=O)cc1)C1CCN(CC[C@H](c2ccc(S(C)(=O)=O)cc2)c2cccc(C#N)c2)CC1`: the IC50 in data set [4] came to 56 nM. This IC50 is about 8.9-fold lower than that of the compound before.

One may read the half-life as the time needed for the level to fall by half in the phase considered. As usually defined, the clearance is the rate of elimination divided by the concentration. Low values mean a low capacity for elimination, high ones a high capacity for elimination. One may read the Vd as a proportionality between amount in the body and measured concentration, not a real space. Low readings indicate confinement near the circulation, high ones extensive tissue distribution. In general, IC50 refers to the concentration at which inhibition is half-maximal. Higher therefore signals weaker potency in that assay.
